Reference: PMC4694998, “Suppression of β-catenin/TCF transcriptional activity and colon tumor cell growth by dual inhibition of PDE5 and 10” (Oncotarget, 2015)
pIC50: −log10 of the molar value.

How the values were obtained:
[1] = test system: intracellular cGMP in HCT116 colon tumor cells; test: cGMP assay (EIA), HCT116; type: cell-based, human; conditions: 45 min of treatment
Protocol: (§1) Cells were plated at a density of 1 × 10^6 cells per 10 cm tissue culture dish, incubated for 48 hours, and treated with ADT-094 or vehicle control. After 45 min of treatment, cells were lysed and assayed for cGMP content using the cGMP Direct Biotrak EIA kit (GE Healthcare Life Sciences). The assay was done according to the manufacturer’s specifications.

[2] = test system: β-catenin/TCF transcriptional activity in HCT116 cells; type: cell-based; conditions: HCT116, 24 hours of treatment
Protocol: (§2) Cells were seeded at a density of 5 × 10^4 cells per well in 24-well tissue culture plates and incubated overnight at 37°C. Cells were transiently transfected with 0.1 μg TOP-FLASH constructs (Millipore) and 0.1 μg β-galactosidase-expressing vector (Promega). After 24 hours of transfection, cells were treated with ADT-094 or vehicle for 24 hours. At the end of treatment, cells were lysed and both luciferase and β-galactosidase activities were measured using kits from Promega. All luciferase activity was normalized to β-galactosidase activity.

[3] = biological target: T1, PDE5 (Homo sapiens, UniProt O76074); test: IMAP fluorescence polarization PDE assay, recombinant PDE5; type: biochemical; conditions: recombinant enzyme
T1 construct: purchased BPS Biosciences
Protocol: (§3) Recombinant PDE isozymes were purchased from BPS Biosciences. The PDE10 antibody was purchased from GeneTex, while the PDE5 antibody was purchased from Cell Signaling Technologies. Non-targeting control siRNA and PDE10 specific siRNAs were purchased from Qiagen. RNAiMAX transfection reagent was purchased from Invitrogen. DMSO was used as vehicle for all compounds unless otherwise noted. All other reagents were purchased from Sigma.
(§4) PDE activity was measured using the IMAP fluorescence polarization (FP) PDE assay (Molecular Devices) in which binding of hydrolyzed fluorescent cyclic nucleotide substrate to the IMAP reagent increases FP as described previously.
(§5) The IC50 values were determined as described previously. All experiments were repeated a minimum of three times to determine the reproducibility of the results. All error bars represent standard error of the mean (SEM). Statistical analysis of differences between samples was performed using the Student’s t-test. A P value of < 0.05 was considered statistically significant.

[4] = test system: HT29 colon tumor cells; test: Growth assay (Cell Titer Glo), HT29; type: cell-based; conditions: Homo sapiens, HT-29; 72 hours of treatment; read-out: HT29 growth IC50
Protocol: (§6) Human colon tumor cell lines, HCT116, HT29, SW480 and Caco-2 were obtained from the American Type Culture Collection (ATCC) and grown under standard cell culture conditions in RPMI 1640 medium containing 5% serum at 37°C in a humidified atmosphere with 5% CO2. The human colonocyte line, NCM460, that is derived from normal human colon mucosa was obtained from INCELL and grown in INCELL’s enriched M3:10 medium with 10% serum as recommended by supplier. All cell lines were expanded upon delivery, and numerous aliquots of low passage cells were preserved in liquid N2. Cells were passaged no longer than 2 months. Tumor cell lines obtained from ATCC were characterized by STR profiling as performed by ATCC. The NCM460 line was characterized by INCELL as described previously (e.g. tumorigenicity testing). No additional re-authentication of the cell lines was performed except for experimental reasons (e.g. confirmation of cell doubling time, morphology, sensitivity to SS, PDE5/10 expression levels, etc).
(§7) Cells were plated in 96-well microtiter plates at a density of 5,000 cells per well. For drug treatment, cells were treated with compound or vehicle, and incubated at 37°C for 72 hours. All growth assays were performed in 5% serum unless otherwise noted. Deionized water was used as vehicle control for papaverine. For siRNA assays, cells were transfected with siRNA under the same condition described above. The effect of treatment on cell growth was measured using the Cell Titer Glo Assay as specified by the manufacturer (Promega).
as §5

[5] = test system: intracellular cGMP in normal colonocytes; test: cGMP assay (EIA), colonocytes; type: cell-based, human; conditions: 45 min of treatment
Protocol: as §1

[6] = biological target: T2, purified ovine COX-2 (Ovis aries, UniProt P79208); test: COX-2 colorimetric assay; type: biochemical
T2 construct: purchased Cayman
T2 sequence (P79208 17-603): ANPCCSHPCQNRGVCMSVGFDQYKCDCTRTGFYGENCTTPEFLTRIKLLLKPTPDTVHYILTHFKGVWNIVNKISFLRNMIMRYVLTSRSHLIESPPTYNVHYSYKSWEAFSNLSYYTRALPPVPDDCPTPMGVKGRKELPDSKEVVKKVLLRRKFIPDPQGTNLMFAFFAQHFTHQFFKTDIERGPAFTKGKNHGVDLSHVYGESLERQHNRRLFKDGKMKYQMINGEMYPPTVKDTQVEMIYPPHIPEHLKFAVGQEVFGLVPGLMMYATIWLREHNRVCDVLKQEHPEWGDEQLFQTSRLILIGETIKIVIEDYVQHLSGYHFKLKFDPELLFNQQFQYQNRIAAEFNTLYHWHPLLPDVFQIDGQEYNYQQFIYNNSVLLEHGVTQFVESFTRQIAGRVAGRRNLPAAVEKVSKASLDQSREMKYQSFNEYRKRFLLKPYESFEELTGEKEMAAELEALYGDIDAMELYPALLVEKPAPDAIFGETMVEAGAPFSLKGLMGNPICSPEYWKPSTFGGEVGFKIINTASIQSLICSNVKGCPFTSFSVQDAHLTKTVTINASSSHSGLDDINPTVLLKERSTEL
Protocol: COX-1 and COX-2 activities were measured using purified ovine COX-1 and COX-2 with colorimetric assay kits obtained from Cayman as previously reported. The activities of COX-1 and COX-2 were measured after the addition of arachidonic acid and incubation at 25°C for 5 min by absorbance at 590 nm as specified by the manufacturer.
as §5

[7] = test system: β-catenin signaling in HCT116 colon tumor cells; test: Western blotting of β-catenin, cyclin D1, survivin, HCT116; type: cell-based, human
Protocol: (§8) Western blotting was performed as described previously. Cells were treated with ADT-094 or vehicle for 8 hours before cell lysates were collected.

[8] = test system: β-catenin signaling in Caco-2 colon tumor cells; test: Western blotting of β-catenin, cyclin D1, survivin, Caco-2; type: cell-based, human
Protocol: as §8

[9] = test system: PKG/PKA activity (VASP Ser239/Ser157) in Caco-2 colon tumor cells; test: Western blotting of VASP phosphorylation, Caco-2; type: cell-based, human
Protocol: as §8

[10] = test system: NCM460 normal colonocytes; test: Growth assay (Cell Titer Glo), NCM460 normal colonocytes; type: cell-based, human
Protocol: as §6, §7, §5

[11] = biological target: T3, PDE10 (Homo sapiens, UniProt Q9Y233); test: IMAP fluorescence polarization PDE assay, recombinant PDE10; type: biochemical; conditions: recombinant enzyme
T3 construct: purchased BPS Biosciences
Protocol: as §3, §4, §5

[12] = test system: β-catenin/TCF transcriptional activity in SW480 cells; test: TOP-FLASH luciferase reporter assay, SW480; type: cell-based, human; conditions: SW480, 24 hours of treatment
Protocol: as §2

T3 sequence (Q9Y233 267-1055): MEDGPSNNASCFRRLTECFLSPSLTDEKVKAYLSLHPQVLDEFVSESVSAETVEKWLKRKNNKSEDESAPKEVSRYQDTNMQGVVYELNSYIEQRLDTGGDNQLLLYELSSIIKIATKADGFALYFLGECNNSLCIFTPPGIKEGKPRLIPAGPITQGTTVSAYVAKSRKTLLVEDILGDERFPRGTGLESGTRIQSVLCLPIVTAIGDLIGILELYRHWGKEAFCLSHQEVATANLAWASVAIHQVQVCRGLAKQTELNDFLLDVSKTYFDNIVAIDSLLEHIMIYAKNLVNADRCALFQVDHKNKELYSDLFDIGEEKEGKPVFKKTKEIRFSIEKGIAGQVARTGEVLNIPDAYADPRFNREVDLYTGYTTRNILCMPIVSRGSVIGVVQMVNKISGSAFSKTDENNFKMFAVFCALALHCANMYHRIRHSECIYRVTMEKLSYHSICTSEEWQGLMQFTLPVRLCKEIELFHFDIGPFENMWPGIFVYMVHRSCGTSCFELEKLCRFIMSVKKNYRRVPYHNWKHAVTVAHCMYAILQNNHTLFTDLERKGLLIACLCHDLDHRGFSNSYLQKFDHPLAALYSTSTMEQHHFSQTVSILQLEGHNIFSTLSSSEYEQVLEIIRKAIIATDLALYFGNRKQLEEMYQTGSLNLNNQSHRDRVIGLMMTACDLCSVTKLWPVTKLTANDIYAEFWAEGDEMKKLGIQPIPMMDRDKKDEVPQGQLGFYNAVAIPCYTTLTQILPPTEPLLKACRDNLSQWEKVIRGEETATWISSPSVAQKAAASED

What does the source list for `COc1ccc2c(c1)C(CC(=O)NCc1ccco1)=C(C)/C2=C/c1cc(OC)c(OC)c(OC)c1` [ADT-094, (Z)-N-(furan-2-ylmethyl)-2-(5-methoxy-2-methyl-1-(3,4,5-trimethoxybenzylidene)-1H-inden-3-yl) acetamide]?
intracellular cGMP levels [1]: significantly increased; β-catenin/TCF transcriptional activity [2]: significantly inhibited; pIC50 [3]: 5.62; pIC50 [4]: 7.00; intracellular cGMP levels [5]: did not significantly affect; pIC50 ([6]; Figure 3A): 3.84; COX-2 inhibitory activity ([6]; in words): essentially lacks; levels of cyclin D1 and survivin [7]: also decreased; β-catenin levels [7]: dose-dependent decrease; levels of cyclin D1 and survivin [8]: also decreased; β-catenin levels [8]: dose-dependent decrease; VASP phosphorylation at Ser239 ([9]; Caco-2): Dose-dependent increases; PKA activity (VASP phosphorylation at Ser157) ([9]; Caco-2, at concentrations that cause PKG activation): did not affect PKA activity; pIC50 ([10]; Homo sapiens, NCM460, Figure 3C, luciferase-based ATP assay, 72 hours, read-out: NCM460 growth IC50): < 5.00; growth of normal colonocytes (tumor cell selectivity) ([10]; in words): essentially refractory to treatment; pIC50 [11]: 6.30; β-catenin/TCF transcriptional activity [12]: significantly inhibited
